Experimental data as given in patent US12077503B2, “Substituted cyclic amides and their use as herbicides” (FMC CORPORATION, priority 2015, dated 2024).

How the values were obtained:
Assay type in all cases: in vivo
[1] = tested on: ivy-leaved morning glory (Ipomoea hederacea); assay: Test G Post-Emergence Protocol; conditions: Ipomoea, post-emergence, 312 h, read-out: Morningglory, Ivy-leaved damage rating; for pest or weed control at 15.625 g/ha: 15.625 g ai/ha, evaluated after 13 days (100=total damage to plant; 0=no damage to plant); for pest or weed control at 62.5 g/ha: 62.5 g ai/ha; for pest or weed control at 62.5 g/ha / pest or weed control at 250 g/ha: evaluated after 13 days, 100=total damage to plant, 0=no damage to plant; for pest or weed control at 250 g/ha: 250 g ai/ha
In short: (§1)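 Damage was rated 13 days after treatment from 0 (none) to 100 (plant killed). Compound was applied as a spray at 15.625, 62.5 or 250 g/ha in 50:50 acetone/water containing 0.5% Tween 20, onto 8-day-old potted plants kept in a glasshouse (24/16 °C, 14 h light, 65% humidity).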

[2] = tested on: giant foxtail (Setaria faberi); assay: Test G Post-Emergence Protocol; conditions: Setaria faberi, post-emergence, 312 h, read-out: Foxtail, Giant damage rating; for pest or weed control at 15.625 g/ha: 15.625 g ai/ha, evaluated after 13 days (100=total damage to plant; 0=no damage to plant); for pest or weed control at 62.5 g/ha: 62.5 g ai/ha; for pest or weed control at 62.5 g/ha / pest or weed control at 250 g/ha: evaluated after 13 days, 100=total damage to plant, 0=no damage to plant; for pest or weed control at 250 g/ha: 250 g ai/ha
In short: as §1

[3] = tested on: redroot pigweed (Amaranthus retroflexus); assay: Test G Post-Emergence Protocol; conditions: Amaranthus retroflexus, post-emergence, 312 h, read-out: Pigweed, Redroot damage rating; for pest or weed control at 15.625 g/ha: 15.625 g ai/ha, evaluated after 13 days (100=total damage to plant; 0=no damage to plant); for pest or weed control at 62.5 g/ha: 62.5 g ai/ha; for pest or weed control at 62.5 g/ha / pest or weed control at 250 g/ha: evaluated after 13 days, 100=total damage to plant, 0=no damage to plant; for pest or weed control at 250 g/ha: 250 g ai/ha
In short: as §1

[4] = tested on: velvetleaf (Abutilon theophrasti); assay: Test G Post-Emergence Protocol; conditions: Abutilon theophrasti, post-emergence, 312 h, read-out: Velvetleaf damage rating; for pest or weed control at 15.625 g/ha: 15.625 g ai/ha, evaluated after 13 days (100=total damage to plant; 0=no damage to plant); for pest or weed control at 62.5 g/ha: 62.5 g ai/ha; for pest or weed control at 62.5 g/ha / pest or weed control at 250 g/ha: evaluated after 13 days, 100=total damage to plant, 0=no damage to plant; for pest or weed control at 250 g/ha: 250 g ai/ha
In short: as §1

[5] = tested on: barnyardgrass (Echinochloa crus-galli); assay: Test G Post-Emergence Protocol; conditions: Echinochloa crus-galli, post-emergence, 312 h, read-out: Barnyardgrass damage rating; for pest or weed control at 15.625 g/ha: 15.625 g ai/ha, evaluated after 13 days (100=total damage to plant; 0=no damage to plant); for pest or weed control at 62.5 g/ha: 62.5 g ai/ha; for pest or weed control at 62.5 g/ha / pest or weed control at 250 g/ha: evaluated after 13 days, 100=total damage to plant, 0=no damage to plant; for pest or weed control at 250 g/ha: 250 g ai/ha
In short: as §1

corn (Zea mays) [6] = assay: Test G Post-Emergence Protocol; conditions: Zea mays, post-emergence, 312 h, read-out: Corn damage rating; for plant injury at 15.625 g/ha: 15.625 g ai/ha, evaluated after 13 days (100=total damage to plant; 0=no damage to plant); for plant injury at 62.5 g/ha: 62.5 g ai/ha; for plant injury at 62.5 g/ha / plant injury at 250 g/ha: evaluated after 13 days, 100=total damage to plant, 0=no damage to plant; for plant injury at 250 g/ha: 250 g ai/ha
In short: as §1

[7] = tested on: ivy-leaved morning glory (Ipomoea hederacea); assay: Test G Pre-Emergence Protocol; conditions: Ipomoea, pre-emergence, 312 h, evaluated after 13 days; for pest or weed control at 15.625 g/ha: 15.625 g ai/ha; for pest or weed control at 15.625 g/ha / pest or weed control at 250 g/ha: read-out: Morningglory, Ivy-leaved damage rating (100=total damage to plant; 0=no damage to plant); for pest or weed control at 62.5 g/ha: 62.5 g ai/ha, 100=total damage to plant, 0=no damage to plant, read-out: Morningglory, Ivy-leaved damage rating; for pest or weed control at 250 g/ha: 250 g ai/ha
In short: (§2)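 Herbicidal effect was rated 13 days post-application on a scale where 100 equals total damage. Spraying took place the day after sowing, using 15.625, 62.5 or 250 g/ha of compound in a 50:50 acetone/water solution with 0.5% Tween 20.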

[8] = tested on: giant foxtail (Setaria faberi); assay: Test G Pre-Emergence Protocol; conditions: Setaria faberi, pre-emergence, 312 h, evaluated after 13 days; for pest or weed control at 15.625 g/ha: 15.625 g ai/ha; for pest or weed control at 15.625 g/ha / pest or weed control at 250 g/ha: read-out: Foxtail, Giant damage rating (100=total damage to plant; 0=no damage to plant); for pest or weed control at 62.5 g/ha: 62.5 g ai/ha, 100=total damage to plant, 0=no damage to plant, read-out: Foxtail, Giant damage rating; for pest or weed control at 250 g/ha: 250 g ai/ha
In short: as §2

[9] = tested on: redroot pigweed (Amaranthus retroflexus); assay: Test G Pre-Emergence Protocol; conditions: Amaranthus retroflexus, pre-emergence, 312 h, evaluated after 13 days; for pest or weed control at 15.625 g/ha: 15.625 g ai/ha; for pest or weed control at 15.625 g/ha / pest or weed control at 250 g/ha: read-out: Pigweed, Redroot damage rating (100=total damage to plant; 0=no damage to plant); for pest or weed control at 62.5 g/ha: 62.5 g ai/ha, 100=total damage to plant, 0=no damage to plant, read-out: Pigweed, Redroot damage rating; for pest or weed control at 250 g/ha: 250 g ai/ha
In short: as §2

[10] = tested on: velvetleaf (Abutilon theophrasti); assay: Test G Pre-Emergence Protocol; conditions: Abutilon theophrasti, pre-emergence, 312 h, evaluated after 13 days; for pest or weed control at 15.625 g/ha: 15.625 g ai/ha; for pest or weed control at 15.625 g/ha / pest or weed control at 250 g/ha: read-out: Velvetleaf damage rating (100=total damage to plant; 0=no damage to plant); for pest or weed control at 62.5 g/ha: 62.5 g ai/ha, 100=total damage to plant, 0=no damage to plant, read-out: Velvetleaf damage rating; for pest or weed control at 250 g/ha: 250 g ai/ha
In short: as §2

[11] = tested on: barnyardgrass (Echinochloa crus-galli); assay: Test G Pre-Emergence Protocol; conditions: Echinochloa crus-galli, pre-emergence, 312 h, evaluated after 13 days; for pest or weed control at 15.625 g/ha: 15.625 g ai/ha; for pest or weed control at 15.625 g/ha / pest or weed control at 250 g/ha: read-out: Barnyardgrass damage rating (100=total damage to plant; 0=no damage to plant); for pest or weed control at 62.5 g/ha: 62.5 g ai/ha, 100=total damage to plant, 0=no damage to plant, read-out: Barnyardgrass damage rating; for pest or weed control at 250 g/ha: 250 g ai/ha
In short: as §2

corn (Zea mays) [12] = assay: Test G Pre-Emergence Protocol; conditions: Zea mays, pre-emergence, 312 h, evaluated after 13 days; for plant injury at 15.625 g/ha: 15.625 g ai/ha; for plant injury at 15.625 g/ha / plant injury at 250 g/ha: read-out: Corn damage rating (100=total damage to plant; 0=no damage to plant); for plant injury at 62.5 g/ha: 62.5 g ai/ha, 100=total damage to plant, 0=no damage to plant, read-out: Corn damage rating; for plant injury at 250 g/ha: 250 g ai/ha
In short: as §2

| SMILES | pest or weed control at 15.625 g/ha [1] [%] | pest or weed control at 62.5 g/ha [1] [%] | pest or weed control at 250 g/ha [1] [%] | pest or weed control at 15.625 g/ha [2] [%] | pest or weed control at 62.5 g/ha [2] [%] | pest or weed control at 250 g/ha [2] [%] | pest or weed control at 15.625 g/ha [3] [%] | pest or weed control at 62.5 g/ha [3] [%] | pest or weed control at 250 g/ha [3] [%] | pest or weed control at 15.625 g/ha [4] [%] | pest or weed control at 62.5 g/ha [4] [%] | pest or weed control at 250 g/ha [4] [%] | pest or weed control at 15.625 g/ha [5] [%] | pest or weed control at 62.5 g/ha [5] [%] | pest or weed control at 250 g/ha [5] [%] | plant injury at 15.625 g/ha (corn (Zea mays) [6]) [%] | plant injury at 62.5 g/ha (corn (Zea mays) [6]) [%] | plant injury at 250 g/ha (corn (Zea mays) [6]) [%] | pest or weed control at 15.625 g/ha [7] [%] | pest or weed control at 62.5 g/ha [7] [%] | further results |
| --- | --- | --- | --- | --- | --- | --- | --- | --- | --- | --- | --- | --- | --- | --- | --- | --- | --- | --- | --- | --- | --- |
| CSc1ccncc1NC(=O)[C@H]1C(=O)N(C)C[C@@H]1c1ccc(C(F)(F)F)cc1 (racemic) [Compound 1749] | 0 | 0 | 0 | 0 | 0 | 0 | 0 | 0 | 0 | 0 | 0 | 0 | 0 | 0 | 0 | 0 | 0 | 0 | 0 | 0 | pest or weed control at 250 g/ha [7]: 0%; pest or weed control at 15.625 g/ha [8]: 0%; pest or weed control at 62.5 g/ha [8]: 0%; pest or weed control at 250 g/ha [8]: 0%; pest or weed control at 15.625 g/ha [9]: 0%; pest or weed control at 62.5 g/ha [9]: 0%; pest or weed control at 250 g/ha [9]: 0%; pest or weed control at 15.625 g/ha [10]: 0%; pest or weed control at 62.5 g/ha [10]: 0%; pest or weed control at 250 g/ha [10]: 0%; pest or weed control at 15.625 g/ha [11]: 0%; pest or weed control at 62.5 g/ha [11]: 0%; pest or weed control at 250 g/ha [11]: 0%; plant injury at 15.625 g/ha (corn (Zea mays) [12]): 0%; plant injury at 62.5 g/ha (corn (Zea mays) [12]): 0%; plant injury at 250 g/ha (corn (Zea mays) [12]): 0% |
| COc1cc(F)cc(C2CN(C)C(=O)C2C(=O)Nc2cccc(F)c2F)c1 (stereo not drawn) [Compound 1699] | 10 | 30 | 70 | 80 | 80 | 80 | 0 | 0 | 30 | 0 | 0 | 30 | 60 | 80 | 90 | 0 | 30 | 70 | 0 | 10 | pest or weed control at 250 g/ha [7]: 70%; pest or weed control at 15.625 g/ha [8]: 80%; pest or weed control at 62.5 g/ha [8]: 90%; pest or weed control at 250 g/ha [8]: 90%; pest or weed control at 15.625 g/ha [9]: 0%; pest or weed control at 62.5 g/ha [9]: 0%; pest or weed control at 250 g/ha [9]: 0%; pest or weed control at 15.625 g/ha [10]: 0%; pest or weed control at 62.5 g/ha [10]: 0%; pest or weed control at 250 g/ha [10]: 0%; pest or weed control at 15.625 g/ha [11]: 60%; pest or weed control at 62.5 g/ha [11]: 80%; pest or weed control at 250 g/ha [11]: 90%; plant injury at 15.625 g/ha (corn (Zea mays) [12]): 0%; plant injury at 62.5 g/ha (corn (Zea mays) [12]): 30%; plant injury at 250 g/ha (corn (Zea mays) [12]): 70% |
